Values after ≈ are worked out from the molar mass of the structure shown. Read-outs that look alike come from different tables or passages of the source.
Experiments:
Test in all cases: MIC, CLSI broth microdilution
Assay type in all cases: cell-based
[1] = system: Pseudomonas aeruginosa AmpC overexpressed
How it was run: (§1)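 Two subcultures from frozen stock preceded testing. Final inoculum: 5×10^5 CFU/mL. Final compound concentrations: 16-0.0125 μg/mL, doubling dilutions, CLSI broth method.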

[2] = system: Escherichia coli SHV-12; settings: SHV12
How it was run: (§2)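 CLSI broth microdilution; 2-fold compound series, final 16-0.0125 μg/mL; final inoculum 5×10^5 CFU/mL. Strains genotyped for resistance markers, passaged twice from frozen stock before testing.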

[3] = system: Pseudomonas aeruginosa ATCC 27853; settings: ATCC27853
How it was run: as §2

[4] = system: Citrobacter freundii species complex OXA-181
How it was run: as §2

[5] = system: Escherichia coli CMY-2; settings: CMY2
How it was run: as §2

[6] = system: Escherichia coli Isogenic TEM-10
How it was run: as §1

[7] = system: Escherichia coli Isogenic TEM-26
How it was run: as §1

[8] = system: Serratia marcescens AmpC overexpressed
How it was run: as §1

[9] = system: Escherichia coli ATCC 25922; settings: ATCC25922
How it was run: as §2

[10] = system: Serratia marcescens SME-2; settings: SME2
How it was run: as §2

[11] = system: Escherichia coli Empty pSMART plasmid
How it was run: as §2

[12] = system: Klebsiella pneumoniae SHV-12
How it was run: as §2

[13] = system: Escherichia coli pSMART_Ecloacae_AmpC
How it was run: as §1

[14] = Citrobacter freundii species complex, OXA-181, read-out: MIC

Structure (SMILES) | MIC [1] [µg/mL] | MIC [2] [µg/mL] | MIC [3] [µg/mL] | MIC [4, 14] [µg/mL] | MIC [5] [µg/mL] | MIC [6] [µg/mL] | MIC [7] [µg/mL] | MIC [8] [µg/mL] | MIC [9] [µg/mL] | MIC [10] [µg/mL] | MIC [11] [µg/mL] | MIC ([12]; SHV12, SHV-12, read-out: MIC) [µg/mL] | MIC [13] [µg/mL] | MIC ([12]; SHV12) [µg/mL] | MIC ([4]; Citrobacter freundii) [µg/mL]
CC(C)(O/N=C(\C(=O)N[C@@H]1C(=O)N2C(C(=O)[O-])=C(C[n+]3ccccc3)CS[C@H]12)c1csc(N)n1)C(=O)O [Ceftazidime, ceftazidime, reference compound] | 8 (≈ 14.6 µM) | 32 (≈ 58.5 µM) | 1 (≈ 1.83 µM) | 8 (≈ 14.6 µM) | > 32 | > 32 | > 32 | 0.5 (≈ 0.915 µM) | 0.25 (≈ 0.457 µM) | 0.25 (≈ 0.457 µM) | 0.25 (≈ 0.457 µM) | > 32 | – | – | –
Nc1nc(/C(=N/OC2(C(=O)O)CC2)C(=O)N[C@H]2CON(C3(C(=O)O)C[C@H](N4C(=O)c5cc(O)c(O)cc5C4=O)C(=O)O3)C2=O)cs1 (stereo partly drawn) [Cmpd 1, (4S)-2-[(4S)-4-{[(2Z)-2-(2-amino-1,3-thiazol-4-yl)-2-{[(1-carboxycyclopropyl)oxy]imino}acetyl]amino}-3-oxo-1,2-oxazolidin-2-yl]-4-(5,6-dihydroxy-1,3-dioxo-1,3-dihydro-2H-isoindol-2-yl)-5-oxooxolane-2-carboxylic acid] | 0.5 (≈ 0.757 µM) | 0.5 (≈ 0.757 µM) | 0.12 (≈ 0.182 µM) | 0.03 (≈ 0.0454 µM) | 1 (≈ 1.51 µM) | 0.0149 (≈ 0.0226 µM) | 0.0149 (≈ 0.0226 µM) | 0.12 (≈ 0.182 µM) | 0.06 (≈ 0.0908 µM) | 0.06 (≈ 0.0908 µM) | – | – | 0.03 (≈ 0.0454 µM) | 0.0149 (≈ 0.0226 µM) | –
Nc1nc(/C(=N/OC2(C(=O)O)CCOCC2)C(=O)N[C@H]2CON(C3(C(=O)O)C[C@H](N4C(=O)c5cc(O)c(O)cc5C4=O)C(=O)O3)C2=O)cs1 (stereo partly drawn) [Cmpd 8, 4-({(Z)-[1-(2-amino-1,3-thiazol-4-yl)-2-({(4S)-2-[(4S)-2-carboxy-4-(5,6-dihydroxy-1,3-dioxo-1,3-dihydro-2H-isoindol-2-yl)-5-oxooxolan-2-yl]-3-oxo-1,2-oxazolidin-4-yl}amino)-2-oxoethylidene]amino}oxy)oxane-4-carboxylic acid] | 0.5 (≈ 0.71 µM) | 1 (≈ 1.42 µM) | 0.12 (≈ 0.17 µM) | – | 1 (≈ 1.42 µM) | 0.0149 (≈ 0.0211 µM) | 0.0149 (≈ 0.0211 µM) | 0.06 (≈ 0.0852 µM) | 0.06 (≈ 0.0852 µM) | 0.06 (≈ 0.0852 µM) | – | – | – | 0.0149 (≈ 0.0211 µM) | 0.0149 (≈ 0.0211 µM)
Nc1nc(/C(=N/OC2(C(=O)O)CCC(F)(F)CC2)C(=O)N[C@H]2CON(C3(C(=O)O)C[C@H](N4C(=O)c5cc(O)c(O)cc5C4=O)C(=O)O3)C2=O)cs1 (stereo partly drawn) [Cmpd 10, (4S)-2-[(4S)-4-{[(2Z)-2-(2-amino-1,3-thiazol-4-yl)-2-{[(1-carboxy-4,4-difluorocyclohexyl)oxy]imino}acetyl]amino}-3-oxo-1,2-oxazolidin-2-yl]-4-(5,6-dihydroxy-1,3-dioxo-1,3-dihydro-2H-isoindol-2-yl)-5-oxooxolane-2-carboxylic acid] | 2 (≈ 2.71 µM) | 2 (≈ 2.71 µM) | 0.12 (≈ 0.162 µM) | ≤ 0.015 | 1 (≈ 1.35 µM) | – | – | 0.12 (≈ 0.162 µM) | 0.12 (≈ 0.162 µM) | 0.06 (≈ 0.0812 µM) | ≤ 0.015 | ≤ 0.015 | – | – | –
Nc1nc(/C(=N/OC2(C(=O)O)CC2)C(=O)N[C@H]2CON(C3(C(=O)O)C[C@H](N4C(=O)c5cc(O)c(O)cc5C4=O)C(=O)O3)C2=O)ns1 (stereo partly drawn) [Cmpd 18, (4S)-2-[(4S)-4-{[(2Z)-2-(5-amino-1,2,4-thiadiazol-3-yl)-2-{[(1-carboxycyclopropyl)oxy]imino}acetyl]amino}-3-oxo-1,2-oxazolidin-2-yl]-4-(5,6-dihydroxy-1,3-dioxo-1,3-dihydro-2H-isoindol-2-yl)-5-oxooxolane-2-carboxylic acid] | 1 (≈ 1.51 µM) | 1 (≈ 1.51 µM) | 0.12 (≈ 0.181 µM) | 0.06 (≈ 0.0907 µM) | 2 (≈ 3.02 µM) | – | – | 0.5 (≈ 0.756 µM) | 0.12 (≈ 0.181 µM) | 0.06 (≈ 0.0907 µM) | 0.0149 (≈ 0.0225 µM) | 0.03 (≈ 0.0454 µM) | – | – | –
Nc1nc(/C(=N/OC2(C(=O)O)CCOCC2)C(=O)N[C@H]2CON(C3(C(=O)O)C[C@H](N4C(=O)c5cc(O)c(O)nc5C4=O)C(=O)O3)C2=O)cs1 (stereo partly drawn) [Cmpd 26, 4-({(Z)-[1-(2-amino-1,3-thiazol-4-yl)-2-({(4S)-2-[(4S)-2-carboxy-4-(2,3-dihydroxy-5,7-dioxo-5,7-dihydro-6H-pyrrolo[3,4-b]pyridin-6-yl)-5-oxooxolan-2-yl]-3-oxo-1,2-oxazolidin-4-yl}amino)-2-oxoethylidene]amino}oxy)oxane-4-carboxylic acid] | 4 (≈ 5.67 µM) | 4 (≈ 5.67 µM) | 2 (≈ 2.83 µM) | 0.25 (≈ 0.354 µM) | 4 (≈ 5.67 µM) | 0.03 (≈ 0.0425 µM) | – | 0.5 (≈ 0.709 µM) | 0.5 (≈ 0.709 µM) | 0.5 (≈ 0.709 µM) | – | 0.06 (≈ 0.085 µM) | – | – | –
Nc1nc(/C(=N/OC2(C(=O)O)CC2)C(=O)N[C@H]2CON(C3(C(=O)O)C[C@H](N4Cc5cc(O)c(O)cc5C4=O)C(=O)O3)C2=O)cs1 (stereo partly drawn) [Cmpd 28, (4S)-2-[(4S)-4-{[(2Z)-2-(2-amino-1,3-thiazol-4-yl)-2-{[(1-carboxycyclopropyl)oxy]imino}acetyl]amino}-3-oxo-1,2-oxazolidin-2-yl]-4-(5,6-dihydroxy-1-oxo-1,3-dihydro-2H-isoindol-2-yl)-5-oxooxolane-2-carboxylic acid] | 2 (≈ 3.09 µM) | 0.5 (≈ 0.773 µM) | 1 (≈ 1.55 µM) | 0.12 (≈ 0.186 µM) | 8 (≈ 12.4 µM) | 0.03 (≈ 0.0464 µM) | 0.03 (≈ 0.0464 µM) | 0.25 (≈ 0.387 µM) | 0.25 (≈ 0.387 µM) | 0.12 (≈ 0.186 µM) | – | 0.06 (≈ 0.0928 µM) | – | – | –

— patent publication US11780832B2, “Lactivicin compounds, their preparation and use as antibacterial agents” (priority 2021, dated 2023)
